Several values for one entry are separate records, joined by “and”; a condition that tells them apart may be missing. Equal values may be shown once. Where a name gives a salt, the structure may show the parent alone.
Assays:
[1] = test system: EG9152 GOF worms (C. elegans NALCN(gf) model); assay: Screen of putative NALCN antagonists by motor behavior, GOF worms on compound agar; format: in vivo
Procedure: (§1) Compounds were dissolved in the vehicle in which they were the most soluble (DMSO or molecular grade water). […] Microwave to dissolve (note: this will boil over rapidly). The screen is performed in a 24-well flat-bottom plate. […] Proceed to next step quickly. […] Immediately begin mixing with pipette tip until the compound dissolves (at this point the mixture should be clear). Fill the remainder of the plate (I usually prepare duplicate wells for each compound) and cover with aluminum foil to protect the compounds from light. Leave at room temperature overnight to allow the plate to dry before screening. […] Prepare at least 4 small plates for each line. […] Pick a line to start with. […] Start timing as soon as a well has been filled. […] Touch the tail of each worm gently with a platinum wire to promote motion. Record any observations. (I like to record the proportion of worms that retain the original phenotype, the proportion that show full body paralysis/death, and the proportion that show paralysis of the neck only).

N2 non-transgenic worms = assay: Screen of putative NALCN antagonists by motor behavior, N2 control worms on compound agar; format: in vivo, C. elegans
Procedure: as §1

Outward K+ currents = assay: Electrophysiology tests, whole-cell recording of E16 embryonic cortical neurons; format: cell-based; settings: mouse E16 cortical neurons, ramp −60~+80 mV, quantified at +80 mV (figure legends)
Procedure: Briefly, the cerebral cortex was isolated from embryos of E16 pregnant mouse (C57/BL6) and cut into small cubes. After being digested in 0.05% Trypsin for 25-30 mins in 37° C. in incubator, the Trypsin was neutralized with 1-2 ml DMEM (containing 10% FBS. The pellets were then triturated with a pipette for 10-15 time and then diluted into plating media (DMEM with 10% FBS). The cell suspension was sieved through a […] nylon filter and plated onto cover slips coated with poly-D-lysine (PDL) in 35 mm dishes at density of 2×10^5 cells per dish. After culturing for 2 hrs in incubator, the plating media was replaced with the following media: Neurobasal media supplemented with 2% B27. Neurobasal media was changed every 3 days until the experiment start.
Membrane potentials of neurons were recorded in whole-cell configuration at 20° C.-22° C. in a mouse E16 embryonic cortical neuron preparation. The pipette solution contained (in mM): K-Gluconate 115; KCl 25; CaCl2) 0.1; MgCl2 5; BAPTA 1; HEPES 10; Na2ATP 5; Na2GTP 0.5; cAMP 0.5; cGMP 0.5, pH 7.2 with KOH, 320 mOsm. The bath solution consisted of (in mM): NaCl 150; KCl 5; CaCl2) 5; MgCl2 1; glucose 10; sucrose 5; HEPES 15, pH 7.3 with NaOH, 330 mOsm. For zero and 15 Na+ solution, extracellular Na+ ([Na+]o) was replaced with N-methyl-D-glucamine (NMDG+) or Tris+. RMP was recorded at 0 pA. […]

Compound: COc1cc2c3cc1Oc1c(OC)c(OC)cc4c1[C@@H](Cc1ccc(O)c(c1)Oc1ccc(cc1)C[C@@H]3N(C)CC2)N(C)CC4 [Berbamine dihydrochloride, Berbamine]
- proportion of worms: LOF ([1]; 4.4 mM, 30 min, Trial 3): GOF, 25% LOF.
- proportion of worms: rescue ([1]; 4.4 mM, 30 min, Trials 1-3): 30 min: 20% and 30 min: 70% and 30 min: 33%
- proportion of worms: rescue ([1]; 4.4 mM, 1 hr, Trial 1): 1 hr: 50-60%
- phenotype proportions at 1 hr compared with 30 min ([1]; 4.4 mM, 1 hr, Trials 2-3): 1 hr: no change.
- response (N2 non-transgenic worms; 4.4 mM, 30 min, Trial 1): 30 min: No
- proportion of worms: “rescue” (N2 non-transgenic worms; 4.4 mM, 30 min, Trials 2-3): 30 min: 70% and 30 min: 30%
- phenotype proportions at 1 hr compared with 30 min (N2 non-transgenic worms; 4.4 mM, 1 hr, Trial 3): 1 hr: no change.

Compound: CCOC(=O)C1=C(COCCN)NC(C)=C(C(=O)OC)C1c1ccccc1Cl (centres unmarked) [Amlodipine Besylate, Amlodipine]
- proportion of worms: GOF ([1]; 1.25 mM, 30 mins, Trial 4): rescue, 36% GOF.
- proportion of worms: rescue ([1]; 1.25 mM, 30 mins, Trial 4): 30 mins: 64%
- proportion of worms: GOF ([1]; 1.25 mM, 1 hr, Trial 4): 27%
- proportion of worms: LOF ([1]; 1.25 mM, 1 hr, Trial 4): 9%
- proportion of worms: rescue ([1]; 1.25 mM, 1 hr, Trial 4): 1 hr: 64% rescue,
- proportion of worms: “rescue” (slight but present) (N2 non-transgenic worms; 1.25 mM, 30 mins, Trial 4): 30 mins: 50%
- proportion of worms: WT(N2) (N2 non-transgenic worms; 1.25 mM, 1 hr, Trial 4): 10% WT(N2).
- proportion of worms: rescue (N2 non-transgenic worms; 1.25 mM, 1 hr, Trial 4): 1 hr: 90% rescue,
- effect on Outward K+ currents (Outward K+ currents): blocked

Compound: CN1CCOC(c2ccccc2)c2ccccc2C1 (centres unmarked) [Nefopam]
- proportion of worms: LOF ([1]; 3.3 mM, 20 min, Trial 3): rescue, 30%
- proportion of worms: GOF ([1]; 3.3 mM, 20 min, Trial 4): rescue, 31% GOF.
- proportion of worms: rescue ([1]; 3.3 mM, 20 min, Trials 3-4): 20 min: 70% and 20 min: 69%
- proportion of worms: GOF ([1]; 3.3 mM, 40 min, Trial 3): rescue, 8% GOF,
- proportion of worms: LOF ([1]; 3.3 mM, 40 min, Trial 3): 67% LOF.
- proportion of worms: rescue ([1]; 3.3 mM, 40 min, Trials 3-4 (Trial 4: sluggish)): 40 min: 100% and 40 min: 25%
- proportion of worms: rescue ([1]; 6.65 mM, 20 min, Trials 1-2): 20 min: 33% and 20 min: 90%
- proportion of worms: rescue ([1]; 6.65 mM, 50 min, Trial 2): 50 min: 60%
- proportion of worms: “rescue” (N2 non-transgenic worms; 3.3 mM, 20 min, Trials 3-4): 20 min: 15% and 20 min: 7%
- proportion of worms: “rescue” (N2 non-transgenic worms; 6.65 mM, 20 min, Trials 1-2): 20 min: 9% and 20 min: 23%
- proportion of worms: LOF (N2 non-transgenic worms; 6.65 mM, 50 min, Trials 1-2): 50 min: 100%
- effect on Outward K+ currents (Outward K+ currents): blocked

Compound: CCOC(=O)c1ccc(N)cc1 [Benzocaine]
- proportion of worms: rescue ([1]; 2.4 mM, 20 min, Trials 3-4): 20 min: 40% and 20 min: 33%
- proportion of worms: rescue ([1]; 2.4 mM, 40 min, Trials 3-4): 40 min: 8% and 40 min: 11%
- Rescue worms still move fairly ... ([1]; 4.71 mM, 30 min, Trial 1): quickly.
- amplitude of body bends overall ([1]; 4.71 mM, 30 min, Trial 1): Reduced
- proportion of worms: rescue ([1]; 4.71 mM, 30 min, Trials 1-2): 30 min: 38% and 30 min: 8%
- proportion of worms: LOF ([1]; 4.71 mM, 1 hr, Trials 1-2): 1 hr: 100%
- paralysis of neck and reduced body bend amplitude but not as obvious a phenotype as Verapamil ([1]; remark for the trials at 4.71 mM and 2.4 mM): Show
- proportion of worms: N2 (N2 non-transgenic worms; 2.4 mM, 20 min, Trials 3-4): 20 min: 28% N2, and 20 min: 27% N2,
- proportion of worms: sluggish N2 (N2 non-transgenic worms; 4.71 mM, 30 min, Trial 2): 30 min: 18%
- proportion of worms: LOF (N2 non-transgenic worms; 4.71 mM, 1 hr, Trials 1-2): 1 hr: 100%
